# Experiment: xn = mol fraction of the nth substance listed
# Conditions: 101 kPa
smiles,measurement,setting,value
CCCC[n+]1ccn(C)c1.[Cl-] + CN(C)C=O,viscosity,"293.15 K, x2 = 0.5025",77 mPa·s
same,viscosity,"293.15 K, x2 = 0.5565",49.1 mPa·s
same,viscosity,"293.15 K, x2 = 0.6003",33.9 mPa·s
same,viscosity,"293.15 K, x2 = 0.6996",16.9 mPa·s
same,viscosity,"293.15 K, x2 = 0.8014",5.1 mPa·s
same,viscosity,"293.15 K, x2 = 0.95",1.32 mPa·s
same,electrical conductivity,"298.15 K, x2 = 0.501",0.218 S/m
same,viscosity,"298.15 K, x2 = 0.501",64 mPa·s
same,electrical conductivity,"298.15 K, x2 = 0.6134",0.439 S/m
same,viscosity,"298.15 K, x2 = 0.6134",24 mPa·s
same,electrical conductivity,"298.15 K, x2 = 0.6994",0.592 S/m
same,viscosity,"298.15 K, x2 = 0.6994",11.4 mPa·s
same,electrical conductivity,"298.15 K, x2 = 0.8017",0.857 S/m
same,viscosity,"298.15 K, x2 = 0.8017",4.44 mPa·s
same,electrical conductivity,"298.15 K, x2 = 0.9",0.922 S/m
same,viscosity,"298.15 K, x2 = 0.9",1.88 mPa·s
same,electrical conductivity,"298.15 K, x2 = 0.9502",0.766 S/m
same,viscosity,"298.15 K, x2 = 0.9502",1.21 mPa·s
same,viscosity,"303.15 K, x2 = 0.552",34.5 mPa·s
same,viscosity,"303.15 K, x2 = 0.7005",9.5 mPa·s
same,viscosity,"303.15 K, x2 = 0.9",1.73 mPa·s
same,viscosity,"308.15 K, x2 = 0.5007",39.9 mPa·s
same,viscosity,"308.15 K, x2 = 0.5564",25.5 mPa·s
same,viscosity,"308.15 K, x2 = 0.6001",17.5 mPa·s
same,viscosity,"308.15 K, x2 = 0.7",7.8 mPa·s
same,viscosity,"308.15 K, x2 = 0.95",1.04 mPa·s
CCCC[n+]1ccn(C)c1.[Cl-] + O,viscosity,"293.15 K, x2 = 0.5535",141 mPa·s
same,viscosity,"293.15 K, x2 = 0.6132",86 mPa·s
same,viscosity,"293.15 K, x2 = 0.7033",39.4 mPa·s
same,viscosity,"293.15 K, x2 = 0.8034",15.5 mPa·s
same,viscosity,"293.15 K, x2 = 0.8999",5.3 mPa·s
same,electrical conductivity,"298.15 K, x2 = 0.4982",0.32 S/m
same,viscosity,"298.15 K, x2 = 0.4982",163 mPa·s
same,electrical conductivity,"298.15 K, x2 = 0.5535",0.502 S/m
same,viscosity,"298.15 K, x2 = 0.5535",105 mPa·s
same,electrical conductivity,"298.15 K, x2 = 0.6132",0.844 S/m
same,viscosity,"298.15 K, x2 = 0.6132",64.5 mPa·s
same,electrical conductivity,"298.15 K, x2 = 0.7033",1.54 S/m
same,viscosity,"298.15 K, x2 = 0.7033",30.4 mPa·s
same,electrical conductivity,"298.15 K, x2 = 0.8999",5.31 S/m
same,viscosity,"298.15 K, x2 = 0.8999",4.38 mPa·s
same,electrical conductivity,"298.15 K, x2 = 0.9502",5.98 S/m
same,viscosity,"298.15 K, x2 = 0.9502",2.22 mPa·s
same,electrical conductivity,"298.15 K, x2 = 0.975",4.98 S/m
same,viscosity,"298.15 K, x2 = 0.975",1.52 mPa·s
same,viscosity,"303.15 K, x2 = 0.4982",118 mPa·s
same,viscosity,"303.15 K, x2 = 0.5535",83 mPa·s
same,viscosity,"303.15 K, x2 = 0.6132",50.4 mPa·s
same,viscosity,"303.15 K, x2 = 0.7033",24.5 mPa·s
same,viscosity,"303.15 K, x2 = 0.8034",10.5 mPa·s
same,viscosity,"303.15 K, x2 = 0.9502",1.94 mPa·s
same,viscosity,"308.15 K, x2 = 0.5535",61.6 mPa·s
same,viscosity,"308.15 K, x2 = 0.6132",38.7 mPa·s
same,viscosity,"308.15 K, x2 = 0.7033",20 mPa·s
same,viscosity,"308.15 K, x2 = 0.8034",8.69 mPa·s
same,viscosity,"308.15 K, x2 = 0.8999",3.3 mPa·s
same,viscosity,"308.15 K, x2 = 0.9502",1.74 mPa·s
CN(C)C=O + CCCC[n+]1ccn(C)c1.[Cl-],viscosity,"293.15 K, x1 = 1",0.86 mPa·s
same,viscosity,"298.15 K, x1 = 1",0.8 mPa·s
same,viscosity,"303.15 K, x1 = 1",0.78 mPa·s
same,viscosity,"308.15 K, x1 = 1",0.73 mPa·s
CCCC[n+]1ccn(C)c1.[Cl-] + CC#N,viscosity,"293.15 K, x2 = 0.5028",111 mPa·s
same,viscosity,"293.15 K, x2 = 0.5548",60.5 mPa·s
same,viscosity,"293.15 K, x2 = 0.6007",38.5 mPa·s
same,viscosity,"293.15 K, x2 = 0.7003",11.9 mPa·s
same,viscosity,"293.15 K, x2 = 0.8",3.9 mPa·s
same,viscosity,"293.15 K, x2 = 0.9002",1.17 mPa·s
same,viscosity,"293.15 K, x2 = 0.9499",0.69 mPa·s
same,electrical conductivity,"298.15 K, x2 = 0.502",0.29 S/m
same,viscosity,"298.15 K, x2 = 0.502",76 mPa·s
same,electrical conductivity,"298.15 K, x2 = 0.5483",0.4 S/m
same,viscosity,"298.15 K, x2 = 0.5483",53.6 mPa·s
same,electrical conductivity,"298.15 K, x2 = 0.6038",0.578 S/m
same,viscosity,"298.15 K, x2 = 0.6038",28.4 mPa·s
same,electrical conductivity,"298.15 K, x2 = 0.7021",1.03 S/m
same,viscosity,"298.15 K, x2 = 0.7021",10 mPa·s
same,electrical conductivity,"298.15 K, x2 = 0.9002",1.9 S/m
same,viscosity,"298.15 K, x2 = 0.9002",1.12 mPa·s
same,electrical conductivity,"298.15 K, x2 = 0.9499",1.7 S/m
same,viscosity,"298.15 K, x2 = 0.9499",0.63 mPa·s
same,electrical conductivity,"298.15 K, x2 = 0.975",1.3 S/m
same,viscosity,"298.15 K, x2 = 0.975",0.46 mPa·s
same,viscosity,"303.15 K, x2 = 0.5065",63.1 mPa·s
same,viscosity,"303.15 K, x2 = 0.5524",40.2 mPa·s
same,viscosity,"303.15 K, x2 = 0.6025",25.5 mPa·s
same,viscosity,"303.15 K, x2 = 0.7003",9.3 mPa·s
same,viscosity,"303.15 K, x2 = 0.8007",3.4 mPa·s
same,viscosity,"303.15 K, x2 = 0.9002",1.06 mPa·s
same,viscosity,"303.15 K, x2 = 0.9499",0.57 mPa·s
same,viscosity,"308.15 K, x2 = 0.5028",55.4 mPa·s
same,viscosity,"308.15 K, x2 = 0.5548",33.3 mPa·s
same,viscosity,"308.15 K, x2 = 0.6007",22 mPa·s
same,viscosity,"308.15 K, x2 = 0.7003",8.5 mPa·s
same,viscosity,"308.15 K, x2 = 0.8",3.04 mPa·s
same,viscosity,"308.15 K, x2 = 0.9002",1.02 mPa·s
same,viscosity,"308.15 K, x2 = 0.9499",0.53 mPa·s
CCCC[n+]1ccn(C)c1.[Cl-] + CO,viscosity,"293.15 K, x2 = 0.6026",23.2 mPa·s
same,viscosity,"293.15 K, x2 = 0.7002",8.4 mPa·s
same,viscosity,"293.15 K, x2 = 0.8008",3.41 mPa·s
same,viscosity,"293.15 K, x2 = 0.8999",1.63 mPa·s
same,viscosity,"293.15 K, x2 = 0.95",0.95 mPa·s
same,electrical conductivity,"298.15 K, x2 = 0.5213",0.632 S/m
same,viscosity,"298.15 K, x2 = 0.5213",37.6 mPa·s
same,electrical conductivity,"298.15 K, x2 = 0.5458",0.777 S/m
same,viscosity,"298.15 K, x2 = 0.5458",32.5 mPa·s
same,electrical conductivity,"298.15 K, x2 = 0.5925",1.08 S/m
same,viscosity,"298.15 K, x2 = 0.5925",20.4 mPa·s
same,electrical conductivity,"298.15 K, x2 = 0.7996",3.46 S/m
same,viscosity,"298.15 K, x2 = 0.7996",3.25 mPa·s
same,electrical conductivity,"298.15 K, x2 = 0.9007",4.08 S/m
same,viscosity,"298.15 K, x2 = 0.9007",1.38 mPa·s
same,electrical conductivity,"298.15 K, x2 = 0.95",3.32 S/m
same,viscosity,"298.15 K, x2 = 0.95",0.88 mPa·s
same,electrical conductivity,"298.15 K, x2 = 0.975",2.24 S/m
same,viscosity,"298.15 K, x2 = 0.975",0.68 mPa·s
same,viscosity,"303.15 K, x2 = 0.5173",36.4 mPa·s
same,viscosity,"303.15 K, x2 = 0.6044",16 mPa·s
same,viscosity,"303.15 K, x2 = 0.7993",2.86 mPa·s
same,viscosity,"303.15 K, x2 = 0.8999",1.25 mPa·s
same,viscosity,"303.15 K, x2 = 0.95",0.85 mPa·s
same,viscosity,"308.15 K, x2 = 0.5001",34.5 mPa·s
same,viscosity,"308.15 K, x2 = 0.5458",23.7 mPa·s
same,viscosity,"308.15 K, x2 = 0.6026",14.9 mPa·s
same,viscosity,"308.15 K, x2 = 0.7001",6.6 mPa·s
same,viscosity,"308.15 K, x2 = 0.8008",2.76 mPa·s
CCCC[n+]1ccn(C)c1.[Cl-] + CCO,viscosity,"293.15 K, x2 = 0.4991",75 mPa·s
same,viscosity,"293.15 K, x2 = 0.5533",47.9 mPa·s
same,viscosity,"293.15 K, x2 = 0.6011",30.6 mPa·s
same,viscosity,"293.15 K, x2 = 0.7003",12.1 mPa·s
same,viscosity,"293.15 K, x2 = 0.8002",5.23 mPa·s
same,viscosity,"293.15 K, x2 = 0.9",2.46 mPa·s
same,electrical conductivity,"298.15 K, x2 = 0.4991",0.326 S/m
same,viscosity,"298.15 K, x2 = 0.4991",61.4 mPa·s
same,electrical conductivity,"298.15 K, x2 = 0.5533",0.483 S/m
same,viscosity,"298.15 K, x2 = 0.5533",37.5 mPa·s
same,electrical conductivity,"298.15 K, x2 = 0.6011",0.648 S/m
same,viscosity,"298.15 K, x2 = 0.6011",23.8 mPa·s
same,electrical conductivity,"298.15 K, x2 = 0.9",1.38 S/m
same,viscosity,"298.15 K, x2 = 0.9",2.24 mPa·s
same,electrical conductivity,"298.15 K, x2 = 0.9501",0.927 S/m
same,viscosity,"298.15 K, x2 = 0.9501",1.62 mPa·s
same,electrical conductivity,"298.15 K, x2 = 0.975",0.52 S/m
same,viscosity,"298.15 K, x2 = 0.975",1.29 mPa·s
same,viscosity,"303.15 K, x2 = 0.5533",31.1 mPa·s
same,viscosity,"303.15 K, x2 = 0.7003",9.2 mPa·s
same,viscosity,"303.15 K, x2 = 0.8002",4.25 mPa·s
same,viscosity,"303.15 K, x2 = 0.9",2.06 mPa·s
same,viscosity,"308.15 K, x2 = 0.4991",38.3 mPa·s
same,viscosity,"308.15 K, x2 = 0.5533",25.6 mPa·s
same,viscosity,"308.15 K, x2 = 0.6011",17 mPa·s
same,viscosity,"308.15 K, x2 = 0.7003",8.2 mPa·s
same,viscosity,"308.15 K, x2 = 0.8002",3.84 mPa·s
same,viscosity,"308.15 K, x2 = 0.9",1.92 mPa·s
same,viscosity,"308.15 K, x2 = 0.9501",1.35 mPa·s
CC#N + CCCC[n+]1ccn(C)c1.[Cl-],viscosity,"293.15 K, x1 = 1",0.36 mPa·s
same,viscosity,"298.15 K, x1 = 1",0.35 mPa·s
same,viscosity,"303.15 K, x1 = 1",0.32 mPa·s
CO + CCCC[n+]1ccn(C)c1.[Cl-],viscosity,"293.15 K, x1 = 1",0.61 mPa·s
same,viscosity,"298.15 K, x1 = 1",0.55 mPa·s
same,viscosity,"303.15 K, x1 = 1",0.51 mPa·s
O + CCCC[n+]1ccn(C)c1.[Cl-],viscosity,"293.15 K, x1 = 1",1.01 mPa·s
same,viscosity,"298.15 K, x1 = 1",0.89 mPa·s
same,viscosity,"303.15 K, x1 = 1",0.8 mPa·s
same,viscosity,"308.15 K, x1 = 1",0.72 mPa·s
CCO + CCCC[n+]1ccn(C)c1.[Cl-],viscosity,"293.15 K, x1 = 1",1.19 mPa·s
same,viscosity,"298.15 K, x1 = 1",1.08 mPa·s
same,viscosity,"308.15 K, x1 = 1",0.89 mPa·s

# From a compilation of properties of binary mixtures (doi:10.1016/j.jiec.2013.02.010)
